Laboratory results taken from the supplement of paper PMC8612539.
Values after ≈ are worked out from the molar mass of the structure shown.

System: Pasteurella multocida
Test: minimum inhibitory concentration (MIC)
Method: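 Broth microdilution MIC (Sensititre BOPO7F bovine plate, CLSI methods) of 19 antimicrobials against field isolates of P. multocida, M. haemolytica, H. somni (deep nasopharyngeal swabs) and E. coli, Enterococcus spp. (rectal swabs) from weaned dairy heifers. Incubation 16-24 h at 35 C. MIC is the lowest concentration preventing visible growth. Values with <= or > lie at the tested range limits. Trimethoprim-sulfamethoxazole is given as the trimethoprim component of a 1:19 mixture.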

CN[C@@H]1[C@H](O)[C@H](NC)[C@H]2O[C@@]3(O)C(=O)C[C@@H](C)O[C@H]3O[C@@H]2[C@H]1O [Spectinomycin]
Details | minimum inhibitory concentration [µg/mL]
isolate (source animal id): 10 | 32 (≈ 96.3 µM)
isolate (source animal id): 11 | 32 (≈ 96.3 µM)
isolate (source animal id): 12 | 32 (≈ 96.3 µM)
isolate (source animal id): 19 | 32 (≈ 96.3 µM)
isolate (source animal id): 23 | 32 (≈ 96.3 µM)
isolate (source animal id): 26 | 32 (≈ 96.3 µM)
isolate (source animal id): 98 | 32 (≈ 96.3 µM)
isolate (source animal id): 104 | ≤ 8
isolate (source animal id): 115 | > 64
isolate (source animal id): 117 | 32 (≈ 96.3 µM)
isolate (source animal id): 118 | 32 (≈ 96.3 µM)
isolate (source animal id): 121 | > 64
isolate (source animal id): 124 | 32 (≈ 96.3 µM)
isolate (source animal id): 125 | 32 (≈ 96.3 µM)
isolate (source animal id): 128 | > 64
isolate (source animal id): 131 | > 64
isolate (source animal id): 135 | > 64
isolate (source animal id): 136 | > 64
isolate (source animal id): 140 | 16 (≈ 48.1 µM)
isolate (source animal id): 144 | 32 (≈ 96.3 µM)
isolate (source animal id): 146 | 32 (≈ 96.3 µM)
isolate (source animal id): 150 | > 64
isolate (source animal id): 151 | > 64
isolate (source animal id): 153 | 16 (≈ 48.1 µM)
isolate (source animal id): 155 | 32 (≈ 96.3 µM)
isolate (source animal id): 157 | 16 (≈ 48.1 µM)
isolate (source animal id): 160 | > 64
isolate (source animal id): 164 | > 64
isolate (source animal id): 165 | > 64
isolate (source animal id): 167 | > 64
isolate (source animal id): 168 | 32 (≈ 96.3 µM)
isolate (source animal id): 169 | 32 (≈ 96.3 µM)
isolate (source animal id): 170 | 32 (≈ 96.3 µM)
isolate (source animal id): 171 | 32 (≈ 96.3 µM)
isolate (source animal id): 172 | > 64
isolate (source animal id): 173 | 32 (≈ 96.3 µM)
isolate (source animal id): 174 | > 64
isolate (source animal id): 175 | > 64
isolate (source animal id): 176 | > 64
isolate (source animal id): 177 | > 64
isolate (source animal id): 178 | > 64
isolate (source animal id): 179 | 32 (≈ 96.3 µM)
isolate (source animal id): 182 | > 64
isolate (source animal id): 192 | > 64
isolate (source animal id): 193 | > 64
isolate (source animal id): 195 | > 64
isolate (source animal id): 196 | > 64
isolate (source animal id): 197 | > 64
isolate (source animal id): 198 | 32 (≈ 96.3 µM)
isolate (source animal id): 199 | 32 (≈ 96.3 µM)
isolate (source animal id): 200 | 32 (≈ 96.3 µM)
isolate (source animal id): 201 | > 64
isolate (source animal id): 203 | > 64
isolate (source animal id): 204 | > 64
isolate (source animal id): 205 | 32 (≈ 96.3 µM)
isolate (source animal id): 206 | > 64
isolate (source animal id): 207 | > 64
isolate (source animal id): 208 | 32 (≈ 96.3 µM)
isolate (source animal id): 209 | > 64
isolate (source animal id): 210 | 32 (≈ 96.3 µM)
isolate (source animal id): 213 | 32 (≈ 96.3 µM)
isolate (source animal id): 216 | > 64
isolate (source animal id): 223 | 32 (≈ 96.3 µM)
isolate (source animal id): 227 | > 64
isolate (source animal id): 229 | 32 (≈ 96.3 µM)
isolate (source animal id): 233 | 32 (≈ 96.3 µM)
isolate (source animal id): 234 | 32 (≈ 96.3 µM)
isolate (source animal id): 237 | 32 (≈ 96.3 µM)
isolate (source animal id): 241 | 16 (≈ 48.1 µM)
isolate (source animal id): 245 | 32 (≈ 96.3 µM)
isolate (source animal id): 247 | 32 (≈ 96.3 µM)
isolate (source animal id): 250 | 16 (≈ 48.1 µM)
isolate (source animal id): 254 | 32 (≈ 96.3 µM)
isolate (source animal id): 255 | 32 (≈ 96.3 µM)
isolate (source animal id): 258 | > 64
isolate (source animal id): 261 | 32 (≈ 96.3 µM)
isolate (source animal id): 262 | 32 (≈ 96.3 µM)
isolate (source animal id): 269 | 32 (≈ 96.3 µM)
isolate (source animal id): 270 | 32 (≈ 96.3 µM)
isolate (source animal id): 274 | 32 (≈ 96.3 µM)
isolate (source animal id): 275 | 32 (≈ 96.3 µM)
isolate (source animal id): 276 | 16 (≈ 48.1 µM)
isolate (source animal id): 277 | 32 (≈ 96.3 µM)
isolate (source animal id): 278 | 32 (≈ 96.3 µM)
isolate (source animal id): 279 | 32 (≈ 96.3 µM)
isolate (source animal id): 280 | 32 (≈ 96.3 µM)
isolate (source animal id): 284 | 32 (≈ 96.3 µM)
isolate (source animal id): 285 | 32 (≈ 96.3 µM)
isolate (source animal id): 287 | 32 (≈ 96.3 µM)
isolate (source animal id): 290 | 32 (≈ 96.3 µM)
isolate (source animal id): 294 | 32 (≈ 96.3 µM)
isolate (source animal id): 295 | 16 (≈ 48.1 µM)
isolate (source animal id): 296 | 32 (≈ 96.3 µM)
isolate (source animal id): 307 | 32 (≈ 96.3 µM)
isolate (source animal id): 310 | 32 (≈ 96.3 µM)
isolate (source animal id): 311 | 16 (≈ 48.1 µM)
isolate (source animal id): 312 | 16 (≈ 48.1 µM)
isolate (source animal id): 313 | 16 (≈ 48.1 µM)
isolate (source animal id): 315 | 32 (≈ 96.3 µM)
isolate (source animal id): 316 | 32 (≈ 96.3 µM)
